Assays:
Assay in all cases: relative viability (nuclei count vs DMSO), 5 days (fraction); higher = more cells survive
IDH-C35 + Alpelisib = compound: Cc1ccccc1C(C(=O)NC1CCCCC1)N(C(=O)Cn1ccnc1C)c1cccc(F)c1 [IDH-C35] + Cc1nc(NC(=O)N2CCC[C@H]2C(N)=O)sc1-c1ccnc(C(C)(C)C(F)(F)F)c1 [Alpelisib] (partner 2 µM)
Outline: (§1)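 The day after seeding in 1536-well plates, lung cancer cell lines were treated by pin tool with a single drug, or with a fixed anchor-drug dose together with five library-drug doses (not always all listed) in √10 steps. After 5 days, a combined fix-and-stain solution (final 0.05% Triton X-100, 1% formaldehyde, 1 ug/ml Hoechst) was added. Nuclei counted on 4× images gave relative viability as treated counts over vehicle counts, reported as the median of duplicate plates.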

[1] = compound: CC1=C(C(=NN1)C)CC2=C(C3=C(S2)N(C(=O)N(C3=O)C)CC(C)C)C(=O)N4C[C@@H](CO4)O + Nc1ncn([C@H]2C[C@H](O)[C@@H](CO)O2)c(=O)n1 [Decitabine] (partner 2 µM)
Outline: as §1

[2] = compound: CC1=C(C(=NN1)C)CC2=C(C3=C(S2)N(C(=O)N(C3=O)C)CC(C)C)C(=O)N4C[C@@H](CO4)O + O=C(CCCCCCC(=O)Nc1ccccc1)NO [Vorinostat] (partner 1 µM)
Outline: as §1

IDH-C35 + Lapatinib = compound: Cc1ccccc1C(C(=O)NC1CCCCC1)N(C(=O)Cn1ccnc1C)c1cccc(F)c1 [IDH-C35] + CS(=O)(=O)CCNCc1ccc(-c2ccc3ncnc(Nc4ccc(OCc5cccc(F)c5)c(Cl)c4)c3c2)o1 [Lapatinib] (partner 2 µM)
Outline: as §1

| Cell Line | relative viability (IDH-C35 + Alpelisib; first compound 0.08 µM) | relative viability (IDH-C35 + Alpelisib; first compound 0.253 µM) | relative viability (IDH-C35 + Alpelisib; first compound 0.8 µM) | relative viability (IDH-C35 + Alpelisib; first compound 2.53 µM) | relative viability (IDH-C35 + Alpelisib; first compound 8 µM) | relative viability ([1]; first compound 0.0025 µM) | relative viability ([1]; first compound 0.007906 µM) | relative viability ([1]; first compound 0.025 µM) | relative viability ([1]; first compound 0.07906 µM) | relative viability ([1]; first compound 0.25 µM) | relative viability ([2]; first compound 0.0025 µM) | relative viability ([2]; first compound 0.007906 µM) | relative viability ([2]; first compound 0.025 µM) | relative viability ([2]; first compound 0.07906 µM) | relative viability ([2]; first compound 0.25 µM) | relative viability (IDH-C35 + Lapatinib; first compound 0.08 µM) | relative viability (IDH-C35 + Lapatinib; first compound 0.253 µM) | relative viability (IDH-C35 + Lapatinib; first compound 0.8 µM) | relative viability (IDH-C35 + Lapatinib; first compound 2.53 µM) | relative viability (IDH-C35 + Lapatinib; first compound 8 µM) |
| --- | --- | --- | --- | --- | --- | --- | --- | --- | --- | --- | --- | --- | --- | --- | --- | --- | --- | --- | --- | --- |
| NCI-H1395 | 1.12 | 0.889 | 1.09 | 1.04 | 1.05 | 0.801 | 0.68 | 0.707 | 0.763 | 0.694 | 0.75 | 0.663 | 0.508 | 0.756 | 0.683 | 1 | 0.928 | 1.08 | 1.09 | 0.891 |
| NCI-H1437 | 0.961 | 0.992 | 0.896 | 0.933 | 0.966 | 0.532 | 0.59 | 0.519 | 0.612 | 0.548 | 0.796 | 0.882 | 0.833 | 0.868 | 0.906 | 0.942 | 0.807 | 0.776 | 0.904 | 0.812 |
| NCI-H1651 | 1.03 | 0.812 | 0.937 | 0.945 | 1 | 0.519 | 0.699 | 0.538 | 0.579 | 0.567 | 0.504 | 0.601 | 0.505 | 0.545 | 0.581 | 0.849 | 0.828 | 0.954 | 1 | 0.76 |
| NCI-H1666 | 0.974 | 0.951 | 0.955 | 0.986 | 0.911 | 0.631 | 0.831 | 0.74 | 0.666 | 0.658 | 1.08 | 1.12 | 1.03 | 1.04 | 1.05 | 0.599 | 0.523 | 0.481 | 0.736 | 0.605 |
| NCI-H1734 | 0.764 | 0.694 | 0.72 | 0.641 | 0.648 | 0.561 | 0.516 | 0.533 | 0.451 | 0.503 | 0.88 | 0.868 | 0.768 | 0.745 | 0.76 | 1.05 | 1.18 | 1.06 | 0.94 | 1.02 |
| NCI-H1755 | 0.976 | 0.875 | 0.955 | 0.927 | 0.877 | 0.699 | 0.811 | 0.742 | 0.646 | 0.696 | 0.792 | 0.781 | 0.724 | 0.632 | 0.719 | 1.08 | 1.03 | 0.992 | 1.03 | 1.02 |
| NCI-H1793 | 0.764 | 0.689 | 0.76 | 0.74 | 0.677 | 0.295 | 0.517 | 0.471 | 0.449 | 0.524 | 0.72 | 0.959 | 0.757 | 0.733 | 0.747 | 0.652 | 0.648 | 0.833 | 0.674 | 0.652 |
| NCI-H1915 | 1.08 | 1.07 | 1.04 | 1.05 | 1.04 | 0.279 | 0.265 | 0.242 | 0.258 | 0.265 | 0.573 | 0.541 | 0.488 | 0.51 | 0.588 | 0.962 | 0.996 | 0.974 | 0.934 | 0.976 |
| NCI-H1944 | 0.848 | 0.911 | 0.826 | 0.75 | 0.81 | 0.452 | 0.46 | 0.462 | 0.404 | 0.448 | 0.6 | 0.704 | 0.576 | 0.522 | 0.594 | 0.858 | 0.824 | 0.81 | 0.774 | 0.832 |
| NCI-H1975 | 0.55 | 0.636 | 0.712 | 0.658 | 0.654 | 0.37 | 0.41 | 0.393 | 0.444 | 0.423 | 0.754 | 0.743 | 0.729 | 0.747 | 0.786 | 0.833 | 0.86 | 0.85 | 0.974 | 0.928 |
| NCI-H1993 | 0.667 | 0.732 | 0.63 | 0.768 | 0.711 | 0.59 | 0.523 | 0.607 | 0.595 | 0.536 | 1.03 | 0.664 | 0.685 | 0.623 | 0.711 | 0.858 | 0.763 | 0.79 | 0.795 | 0.92 |
| NCI-H2009 | 1.24 | 1.12 | 1.1 | 1.15 | 1.1 | 0.412 | 0.408 | 0.342 | 0.418 | 0.407 | 0.703 | 0.785 | 0.735 | 0.756 | 0.701 | 1 | 0.928 | 0.908 | 0.639 | 0.729 |
| NCI-H2023 | 0.598 | 0.581 | 0.579 | 0.492 | 0.611 | 0.23 | 0.255 | 0.211 | 0.231 | 0.244 | 0.621 | 0.797 | 0.645 | 0.545 | 0.636 | 0.938 | 0.921 | 0.83 | 0.263 | 0.808 |
| NCI-H2085 | 0.973 | 0.897 | 0.799 | 1.01 | 0.863 | 0.526 | 0.543 | 0.536 | 0.473 | 0.661 | 0.829 | 0.791 | 0.78 | 0.797 | 0.514 | 0.834 | 0.741 | 0.764 | 0.848 | 0.728 |
